This passage reports EC50 and IC50 results from patent US7998974B2, “Fused heterocyclic compounds and their use as sirtuin modulators” (Sirtris Pharmaceuticals, Inc., priority 2005, dated 2011).

What is called IC50 is the midpoint of a concentration-inhibition curve. A lower IC50 goes with inhibition by little substance.

One assay deals with T1, SIRT1 (Homo sapiens, UniProt Q96EB6).
T1 sequence (Q96EB6 1-747): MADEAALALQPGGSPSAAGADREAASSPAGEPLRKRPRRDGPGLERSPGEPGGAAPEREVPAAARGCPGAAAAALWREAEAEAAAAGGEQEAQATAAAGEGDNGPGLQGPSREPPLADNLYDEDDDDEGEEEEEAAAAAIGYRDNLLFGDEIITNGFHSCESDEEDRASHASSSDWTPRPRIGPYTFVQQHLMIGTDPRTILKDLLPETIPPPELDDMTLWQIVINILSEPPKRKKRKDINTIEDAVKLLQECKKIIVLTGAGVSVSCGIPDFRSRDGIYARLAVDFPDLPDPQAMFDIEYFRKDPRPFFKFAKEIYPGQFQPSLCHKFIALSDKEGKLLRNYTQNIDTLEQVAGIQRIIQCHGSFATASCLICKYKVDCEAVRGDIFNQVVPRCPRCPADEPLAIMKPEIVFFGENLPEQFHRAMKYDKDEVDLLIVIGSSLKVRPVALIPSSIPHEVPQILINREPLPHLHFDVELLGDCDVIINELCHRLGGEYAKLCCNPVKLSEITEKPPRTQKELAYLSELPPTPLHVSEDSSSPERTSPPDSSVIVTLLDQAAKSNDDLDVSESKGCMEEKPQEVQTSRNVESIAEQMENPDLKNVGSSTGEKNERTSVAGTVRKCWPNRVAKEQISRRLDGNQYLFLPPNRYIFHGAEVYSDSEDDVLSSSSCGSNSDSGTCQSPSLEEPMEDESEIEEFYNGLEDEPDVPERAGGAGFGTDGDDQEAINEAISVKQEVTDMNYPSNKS
In words: Fluorescence polarization or mass spectrometry based assay to identify modulators of SIRT1 activity.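 Also: deacetylation of a fluorophore-tagged p53-derived acetyl peptide by SIRT1, detected as fluorescence polarization after trypsin cleavage and streptavidin binding, compounds tested at 11 doses from 0.7 to 100 µM.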 The class given is biochemical. Conditions: activation of SIRT1 (Table 3); read-out: ED50 (the source's name).
For `Cc1[nH]c2ccccc2c1/C=C(\C#N)c1nc2ccccc2[nH]1` [Compound 1], the EC50 is 101 to 150 µM.
On the same count and under the same terms, under `O=C(Nc1cccc(-c2nc3ccccc3[nH]2)c1)c1cccnc1` [Compound 3] stands more than 150 µM; under `Nc1ccc(C(=O)Nc2ccc3[nH]c(-c4ccccc4)nc3c2)cc1` [Compound 4], 51 to 100 µM; under `Cc1csc(NC(=O)c2ccccc2C(=O)O)c1-c1nc2ccccc2s1` [Compound 6], less than 50 µM.
As for `COc1ccccc1NC(=O)Nc1nn(C)c2cccc(OC)c12` [Compound 7], the EC50 lay in the range of 101 to 150 µM.
In the case of `COc1cccc2c1c(NC(=O)c1cc3ccccc3s1)nn2C` [Compound 8], the EC50 was more than 150 µM.
Same read-out and setting: under `N#C/C(=C\c1ccc(-c2ccc(C(=O)O)cc2)o1)c1nc2ccccc2[nH]1` [Compound 9] stands less than 50 µM; under `COc1ccc2nc3s/c(=C\c4ccc(-c5ccc(Cl)c(C(=O)O)c5)o4)c(=O)n3c2c1` [Compound 10], less than 50 µM.
`COc1cc(C(=O)Nc2cccc(-c3nc4ccccc4[nH]3)c2)cc(OC)c1OC` [Compound 11]: the EC50 was in the range of 51 to 100 µM.
Consider `N#CC(C(=O)c1cc2ccccc2o1)c1nc2ccccc2s1` (stereo not drawn) [Compound 12], for which the EC50 is 51 to 100 µM.
With `N#Cc1cc(Oc2nc3ccccc3s2)c(N2CCOCC2)cc1C#N` [Compound 13], the EC50 lay in the range of 101 to 150 µM.
On the same count and under the same terms, under `Nc1ccc2nc(-c3ccc(-c4nc5ccc(N)cc5[nH]4)cc3)[nH]c2c1` [Compound 15] stands 51 to 100 µM; under `Nc1ccc2[nH]c(-c3cccc(-c4nc5cc(N)ccc5[nH]4)c3)nc2c1` [Compound 16], 51 to 100 µM; under `Cc1[nH]c2ccccc2c1/C=C/c1nc2ccccc2c(=O)[nH]1` [Compound 17], more than 150 µM.
For `Nc1ccc2[nH]c(/C=C/c3nc4cc(N)ccc4[nH]3)nc2c1` [Compound 18], the EC50 was 51 to 100 µM.
On to `Cc1ccsc1/C=C(\C#N)c1nc2ccccc2[nH]1` [Compound 19], for which the EC50 is 101 to 150 µM.
`COC(=O)c1[nH]c2cc(OC)c(OC)cc2c1NC(=O)c1cccs1` [Compound 20]: the EC50 was 101 to 150 µM.
Turning to `O=C(Nc1c(C(=O)O)[nH]c2ccc(Br)cc12)c1ccc(F)cc1` [Compound 21], the EC50 lay within 51 to 100 µM.
As to `COC(=O)c1[nH]c2cc(OC)c(OC)cc2c1NC(=O)c1cccc(OC)c1` [Compound 22], the EC50 is more than 150 µM.
On to `COc1cccc(C(=O)Nc2cccc(-c3cn4ccccc4n3)c2)c1` [Compound 23], for which the EC50 is more than 150 µM.
In the case of `COc1cc(/C=C(\C#N)c2nc3ccccc3[nH]2)cc(OC)c1OC` [Compound 24], the EC50 is 101 to 150 µM.
As to `O=C(Nc1cccc(-c2nc3ccccc3[nH]2)c1)c1ccco1` [Compound 25], the EC50 was in the range of 51 to 100 µM.
With `Cc1cccc(-c2nc3c(C(=O)NC4CCC(N)CC4)cccn3c2NCc2ccccc2)c1` (stereo not drawn) [Compound 26], the EC50 fell in the range of 101 to 150 µM.
Still for that read-out and setting: under `CC(=O)Nc1ccc(-c2nc3c(C(=O)NC4CCC(N)CC4)cccn3c2NC2CCCCC2)cc1` (stereo not drawn) [Compound 27] stands 51 to 100 µM.
As to `CCCCNc1c(-c2ccc(OC)c([N+](=O)[O-])c2)nc2c(C(=O)NC(CC(=O)O)C3CCCCC3)cccn12` (stereo not drawn) [Compound 28], the EC50 fell in the range of 101 to 150 µM.
Same read-out and setting: under `COc1ccc(-c2nc3c(C(=O)NC(CC(=O)O)C4CCCCC4)cccn3c2NCc2ccccc2)cc1[N+](=O)[O-]` (stereo not drawn) [Compound 31] stands more than 150 µM.
Consider `CCCCNc1c(-c2ccc(OC)c([N+](=O)[O-])c2)nc2c(C(=O)NCCCN)cccn12` [Compound 33], for which the EC50 is 101 to 150 µM.
In the case of `COc1ccc(-c2nc3c(C(=O)NCCCN)cccn3c2NCc2ccccc2)cc1[N+](=O)[O-]` [Compound 34], the EC50 lay within 101 to 150 µM.
`CC(=O)Nc1ccc(-c2nc3c(C(=O)NCc4cccc(CN)c4)cccn3c2NCc2ccccc2)cc1` [Compound 35]: the EC50 is 51 to 100 µM.
Regarding `CC(=O)Nc1ccc(-c2nc3c(C(=O)NC(CC(=O)O)C4CCCCC4)cccn3c2NC(C)(C)C)cc1` (stereo not drawn) [Compound 36], the EC50 was 101 to 150 µM.
As to `O=C(O)CC(NC(=O)c1cccn2c(NCc3ccccc3)c(-c3ccc4ccccc4c3)nc12)C1CCCCC1` (stereo not drawn) [Compound 38], the EC50 is more than 150 µM.
As to `COc1ccc(-c2nc3cc(C(=O)NC(CC(=O)O)c4ccc(C)cc4)ccn3c2NC2CCCCC2)cc1OC` (stereo not drawn) [Compound 39], the EC50 was 101 to 150 µM.
Consider `COc1ccc(-c2nc3cc(C(=O)NCc4cccc(CN)c4)ccn3c2NC2CCCCC2)cc1[N+](=O)[O-]` [Compound 40], for which the EC50 was 101 to 150 µM.
Regarding `CC(=O)Nc1ccc(-c2nc3c(C(=O)NC(C)C(=O)NCCCN4CCCC4=O)cccn3c2NCc2ccccc2)cc1` (stereo not drawn) [Compound 41], the EC50 was in the range of 101 to 150 µM.
Turning to `N#CCCNC(=O)CNC(=O)c1cccn2c(NCC3CCCO3)c(-c3ccc(Cl)cc3)nc12` (stereo not drawn) [Compound 42], the EC50 was in the range of 51 to 100 µM.
For the molecule `COc1ccc(-c2nc3c(C(=O)NC(C)C(=O)NCCC#N)cccn3c2NCC2CCCO2)cc1` (stereo not drawn) [Compound 44], the EC50 was in the range of 101 to 150 µM.
The same measure, in the same setting: under `COc1cccc(-c2nc3c(C(=O)NC(C)C(=O)NCCC#N)cccn3c2NC2CCCCC2)c1` (stereo not drawn) [Compound 46] stands 51 to 100 µM; under `CC(=O)Nc1ccc(-c2nc3c(C(=O)NCC(=O)NCCC#N)cccn3c2NCc2ccccc2)cc1` [Compound 47], 51 to 100 µM; under `Cc1nn(C)c(Cl)c1-c1nc2c(C(=O)NC(C)C(=O)NCCC#N)cccn2c1NCc1ccccc1` (stereo not drawn) [Compound 48], 101 to 150 µM.
On to `COCCNC(=O)c1cccn2c(NCc3ccccc3)c(-c3ccc(NC(=O)N4CCOCC4)cc3)nc12` [Compound 49], for which the EC50 was in the range of 51 to 100 µM.
Regarding `COCCNC(=O)c1cccn2c(NCc3ccccc3)c(-c3ccc(NC(=O)c4ccco4)cc3)nc12` [Compound 50], the EC50 was more than 150 µM.
On the same count and under the same terms, under `COCCNC(=O)c1cccn2c(NCc3ccccc3)c(-c3ccc(NC(=O)C4CC4)cc3)nc12` [Compound 51] stands 51 to 100 µM; under `CC(=O)NCCNC(=O)c1cccn2c(NCc3ccccc3)c(-c3ccc(NC(=O)c4ccco4)cc3)nc12` [Compound 52], 101 to 150 µM.
Consider `O=C(NCCN1CCNC1=O)c1cccn2c(NCc3ccccc3)c(-c3ccc(NC(=O)N4CCOCC4)cc3)nc12` [Compound 53], for which the EC50 was in the range of 101 to 150 µM.
For `O=C(Nc1ccc(-c2nc3c(C(=O)NCCN4CCNC4=O)cccn3c2NCc2ccccc2)cc1)c1ccco1` [Compound 54], the EC50 was more than 150 µM.
In the case of `Cc1cc(C(=O)Nc2ccc(-c3nc4c(C(=O)NCCN5CCNC5=O)cccn4c3NCc3ccccc3)cc2)no1` [Compound 55], the EC50 is more than 150 µM.
For `CCCCNc1c(-c2ccc(NC(=O)CC(C)C)cc2)nc2c(C(=O)NCCN3CCNC3=O)cccn12` [Compound 56], the EC50 is more than 150 µM.
For the molecule `CC(C)CC(=O)Nc1ccc(-c2nc3c(C(=O)NCCN4CCNC4=O)cccn3c2NC(C)(C)C)cc1` [Compound 57], the EC50 is more than 150 µM.
Regarding `O=C(NCCCN1CCCC1=O)c1cccn2c(NC3CCCCC3)c(-c3ccc(NC(=O)N4CCOCC4)cc3)nc12` [Compound 58], the EC50 is less than 50 µM.
Consider `O=C(Nc1ccc(-c2nc3c(C(=O)NCCCN4CCCC4=O)cccn3c2NC2CCCCC2)cc1)c1ccco1` [Compound 59], for which the EC50 was 101 to 150 µM.
Still for that read-out and setting: under `O=C(NCCCN1CCCC1=O)c1cccn2c(NC3CCCCC3)c(-c3ccc(NC(=O)C4CC4)cc3)nc12` [Compound 60] stands 51 to 100 µM.
Regarding `CCCCNc1c(-c2ccc(NC(=O)c3ccc(Cl)nc3)cc2)nc2c(C(=O)NCCCN3CCCC3=O)cccn12` [Compound 61], the EC50 was more than 150 µM.
For `COc1ccc2c(c1)C(=O)C(c1nc3ccccc3s1)C2=O` (stereo not drawn) [Compound 62], the EC50 is less than 50 µM.
With `CN(C)/C=C(\C#N)c1nc2ccccc2[nH]1` [Compound 64], the EC50 is 51 to 100 µM.
For `O=C(O)CCC(=O)Nc1cccc(-c2nc3cc4ccccc4cc3[nH]2)c1` [Compound 65], the EC50 was more than 150 µM.
Still for that read-out and setting: under `Cc1nc2cc3nc4c5cccc6cccc(c(=O)n4c3cc2[nH]1)c65` [Compound 66] stands 101 to 150 µM.

The assay is the same for the next values; noted with them: inhibition of SIRT1 (Table 4).
Consider `COC(=O)CC(=O)Nc1ccccc1-c1nc2ccc(C(=O)NCc3ccc4c(c3)OCO4)cn2c1NC1CCCCC1` [Compound 84], for which the IC50 is less than 50 µM.
